Assay results from paper PMC7182039 (Journal of medicinal chemistry, 2020).
“And” between values parts separate entries of the source, which are not always exact repeats. Equal values may be shown once. Read-outs that look alike come from different tables or passages of the source. Marks after values point to notes of the source that are not given here.

What was measured:
[1] = tested on: juvenile stage of S. mansoni; settings: mice, single 200 mg/kg oral dose; cited from earlier work
S. mansoni = settings: adult infection, mice, single 400 mg/kg oral dose, cited from earlier work
[2] = In vitro metabolic stability in mouse liver microsomes; type: in vitro ADME; settings: for m CLint: 37 °C, 0.4 mg/mL protein, NADPH
[3] = Kinetic solubility by nephelometry; type: physicochemical; settings: for sol2.0 / sol6.5: kinetic solubility, 1% DMSO, 30 min; for sol2.0: 0.01 M HCl (approx. pH 2.0); for sol6.5: pH 6.5 phosphate buffer
[4] = In vitro metabolic stability in human liver microsomes; type: in vitro ADME; settings: for h CLint: 37 °C, 0.4 mg/mL protein, NADPH
hepatocyte (HC-04) = assay: Cytotoxicity screen; type: cell-based, human; settings: HC-04, 24 h, Alamar blue; data not shown
osteosarcoma (U-2 OS) = assay: Cytotoxicity screen; type: cell-based, human; settings: 24 h, Alamar blue, data not shown
kidney (HEK 293T) = assay: Cytotoxicity screen; type: cell-based, human; settings: 24 h, Alamar blue, data not shown
[5] = tested on: foreskin fibroblast (HFF); assay: Cytotoxicity screen; type: cell-based, human; settings: 24 h, Alamar blue, data not shown

| Compound | m CLint [2] | sol2.0 [3] | sol6.5 [3] | h CLint [4] | also measured |
| --- | --- | --- | --- | --- | --- |
| O=C(O)c1ccc([C@H]2CC[C@]3(CC2)OOC2(O3)C3CC4CC(C3)CC2C4)cc1 (stereo partly shown) [Compound 3] | – | – | – | – | S. mansoni WBR (%) 1 × 200 mg/kg po [1]: 100% and 84^a %; S. mansoni WBR (%) 1 × 400 mg/kg po (S. mansoni): 74^i,j % |
| O=C([O-])C1CCN(CCOc2ccc([C@H]3CC[C@]4(CC3)OOC3(O4)C4CC5CC(C4)CC3C5)cc2)CC1.[Na+] (stereo partly shown) [Compound 15] | 9 μL/(min mg) protein | 3.1 to 6.3 µg/mL | < 1.6 µg/mL | < 7 μL/(min mg) protein | – |
| O=C(O)CN1CCC(Oc2ccc([C@H]3CC[C@]4(CC3)OOC3(O4)C4CC5CC(C4)CC3C5)cc2)CC1 (stereo partly shown) [Compound 16] | <7/<7 μL/(min mg) protein | – | – | <7/<7 μL/(min mg) protein | cytotoxicity: concentration without inhibition of the cell line (hepatocyte (HC-04)): > 50 µM; cytotoxicity: concentration without inhibition of the cell line (osteosarcoma (U-2 OS)): > 50 µM; solubility ([3]; DMSO): < 1 mg/mL; cytotoxicity: concentration without inhibition of the cell line (kidney (HEK 293T)): > 50 µM; cytotoxicity: concentration without inhibition of the cell line [5]: > 50 µM |
| O=C(O)CNC(=O)COc1ccc([C@H]2CC[C@]3(CC2)OOC2(O3)C3CC4CC(C3)CC2C4)cc1 (stereo partly drawn) [Compound 14, cis-Adamantane-2-spiro-3′−8′-[4-[2-[(carboxymethyl)amino]-2-oxoethoxy]phenyl]-1′,2′,4′-trioxaspiro[4.5]decane] | – | 12.5 to 25 µg/mL | – | <7/CND^a,b μL/(min mg) protein | cytotoxicity: concentration without inhibition of the cell line (hepatocyte (HC-04)): > 50 µM; cytotoxicity: concentration without inhibition of the cell line (osteosarcoma (U-2 OS)): > 50 µM; conversion to 2 in human liver microsomes [4]: converted to 2 in human; cytotoxicity: concentration without inhibition of the cell line (kidney (HEK 293T)): > 50 µM; cytotoxicity: concentration without inhibition of the cell line [5]: > 50 µM |
| CC(C)(Oc1ccc([C@H]2CC[C@]3(CC2)OOC2(O3)C3CC4CC(C3)CC2C4)cc1)C(=O)O (stereo partly shown) [Compound 11] | <7/7 μL/(min mg) protein | – | 3.1 to 6.3 µg/mL | <7/7 μL/(min mg) protein | – |
| O=C(O)COc1ccc([C@H]2CC[C@]3(CC2)OOC2(O3)C3CC4CC2CC(C3)C4=O)cc1 (stereo partly drawn) [Compound 20, cis-6-Oxoadamantane-2-spiro-3′−8′-[4-(carboxymethoxy)-phenyl]-1′,2′,4′-trioxaspiro[4.5]decane] | – | – | 50 to 100 µg/mL | – | – |
| CS(=O)(=O)O.NC1C2CC3CC1CC(C2)C31OO[C@]2(CC[C@@H](c3ccc(OCC(=O)O)cc3)CC2)O1 (stereo partly drawn) [Compound 23, cis-6-Aminoadamantane-2-spiro-3′−8′-[4-(carboxymethoxy)-phenyl]-1′,2′,4′-trioxaspiro[4.5]decane mesylate] | 8 μL/(min mg) protein | 6.3 to 12.5 µg/mL | < 1.6 µg/mL | 13 μL/(min mg) protein | – |
| O=C(O)COc1ccc([C@H]2CC[C@]3(CC2)OOC2(O3)C3CC4CC(C3)CC2C4)cc1Cl (stereo partly drawn) [Compound 7, cis-Adamantane-2-spiro-3 ′−8 ′-[3-chloro-4-(carboxymethoxy)-phenyl]-1′,2′,4′-trioxaspiro[4.5]decan] | 8 μL/(min mg) protein | – | 3.1 to 6.3 µg/mL | < 7 μL/(min mg) protein | cytotoxicity: concentration without inhibition of the cell line (hepatocyte (HC-04)): > 50 µM; cytotoxicity: concentration without inhibition of the cell line (osteosarcoma (U-2 OS)): > 50 µM; cytotoxicity: concentration without inhibition of the cell line (kidney (HEK 293T)): > 50 µM; cytotoxicity: concentration without inhibition of the cell line [5]: > 50 µM |
| O=C(O)COc1ccc([C@H]2CC[C@]3(CC2)OOC2(O3)C3CC4CC2CC(C3)C4(F)F)cc1 (stereo partly drawn) [Compound 19, cis-6,6-Difluoroadamantane-2-spiro-3′−8′-[4-(carboxymethoxy)-phenyl]-1′,2′,4′ -trioxaspiro[4.5]decane] | 130 μL/(min mg) protein | – | 12.5 to 25 µg/mL | 23 μL/(min mg) protein | – |
| CS(=O)(=O)NC(=O)COc1ccc([C@H]2CC[C@]3(CC2)OOC2(O3)C3CC4CC(C3)CC2C4)cc1 (stereo partly drawn) [Compound 13, cis-Adamantane-2-spiro-3′−8′-[4-[2-[methylsulfonamino]-2-oxoethoxy]phenyl]-1′,2′,4′-trioxaspiro[4.5]decane] | 12 μL/(min mg) protein | – | 6.3 to 12.5 µg/mL | < 7 μL/(min mg) protein | – |
| CCOC(=O)COc1ccc([C@H]2CC[C@]3(CC2)OOC2(O3)C3CC4CC(C3)CC2C4)cc1 (stereo partly shown) [Compound 12] | – | – | – | – | conversion to 2 in mouse liver microsomes [2]: rapidly converted to 2; conversion to 2 in human liver microsomes [4]: rapidly converted to 2 |
| CS(=O)(=O)O.O=C(O)COc1ccc([C@H]2CC[C@]3(CC2)OOC2(O3)C3CC4CC2CC(C3)N4)cc1 (stereo partly drawn) [Compound 24, cis-6-Azaadamantane-2-spiro-3′−8 ′-[4-(carboxymethoxy)-phenyl]-1′,2′,4′-trioxaspiro[4.5]decane mesylate] | 27 μL/(min mg) protein | 3.1 to 6.3 µg/mL | < 1.6 µg/mL | 35 μL/(min mg) protein | – |
| O=C(O)COc1ccc([C@H]2CC[C@]3(CC2)OOC2(O3)C3CC4CC(C3)CC2C4)cc1 (stereo partly shown) [Compound 2] | – | – | 6.3 to 12.5 µg/mL | – | S. mansoni WBR (%) 1 × 200 mg/kg po [1]: 100^a %; S. mansoni WBR (%) 1 × 400 mg/kg po (S. mansoni; 400 mg/kg): 80^i,j % |
| O=C(O)c1cccc([C@H]2CC[C@]3(CC2)OOC2(O3)C3CC4CC(C3)CC2C4)c1 (stereo partly shown) [Compound 4] | 30 μL/(min mg) protein | <1.6/<1.6 μg/mL | <1.6/<1.6 μg/mL | 12 μL/(min mg) protein | – |
| O=C(O)COc1ccc([C@H]2CC[C@]3(CC2)OOC2(O3)C3CC4CC(C3)CC2C4)cc1C(=O)O (stereo partly drawn) [Compound 6, cis-Adamantane-2-spiro-3′−8′-[3-carboxy-4-(carboxymethoxy)-phenyl]-1′,2′,4′-trioxaspiro[4.5]decane] | 8 μL/(min mg) protein | – | – | < 7 μL/(min mg) protein | – |
| CS(=O)(=O)O.CS(=O)(=O)O.O=C(O)CNCc1ccc([C@H]2CC[C@]3(CC2)OOC2(O3)C3CC4CC2CC(C3)N4)cc1 (stereo partly drawn) [Compound 25, cis-6-Azaadamantane-2-spiro-3′−8′-[4-[[(carboxymethyl)-amino]methyl]phenyl]-1′,2′,4′-trioxaspiro[4.5]decane mesylate] | <7/<7 μL/(min mg) protein | > 100 µg/mL | 50 to 100 µg/mL | <7/<7 μL/(min mg) protein | – |
| CS(=O)(=O)O.O=C(O)C1CN(Cc2ccc([C@H]3CC[C@]4(CC3)OOC3(O4)C4CC5CC(C4)CC3C5)cc2)C1 (stereo partly drawn) [Compound 18, cis-Adamantane-2-spiro-3′−8′-[4-((3-(carbonyi)azetidin-1-yl)-methyi)phenyi]-1′,2′,4′-trioxaspiro[4.5]decane mesyiate] | 10 μL/(min mg) protein | 6.3 to 12.5 µg/mL | < 1.6 µg/mL | 7 μL/(min mg) protein | – |
| CS(=O)(=O)O.O=C(O)CNCc1ccc([C@H]2CC[C@]3(CC2)OOC2(O3)C3CC4CC(C3)CC2C4)cc1 (stereo partly drawn) [Compound 17, cis-Adamantane-2-spiro-3′−8′-[4-[[(carboxymethyi)amino]-methyl]phenyi]-1′,2′,4′-trioxaspiro[4.5]decane mesyiate] | 10 μL/(min mg) protein | < 12.5 µg/mL | < 6.3 µg/mL | < 7 μL/(min mg) protein | cytotoxicity: concentration without inhibition of the cell line (hepatocyte (HC-04)): > 50 µM; cytotoxicity: concentration without inhibition of the cell line (osteosarcoma (U-2 OS)): > 50 µM; cytotoxicity: concentration without inhibition of the cell line (kidney (HEK 293T)): > 50 µM; cytotoxicity: concentration without inhibition of the cell line [5]: > 50 µM |
| O=C(O)CCCCOc1ccc([C@H]2CC[C@]3(CC2)OOC2(O3)C3CC4CC(C3)CC2C4)cc1 (stereo partly drawn) [Compound 10, cis-Adamantane-2-spiro-3′−8′-[4-(carboxybutoxy)phenyl]-1′,2′,4′-trioxaspiro[4.5]decan] | 13 μL/(min mg) protein | <1.6/<1.6 μg/mL | <1.6/<1.6 μg/mL | < 7 μL/(min mg) protein | – |
| O=C(O)c1cc([C@H]2CC[C@]3(CC2)OOC2(O3)C3CC4CC(C3)CC2C4)ccc1O (stereo partly shown) [Compound 5, 5-(Dispiro[adamantane-2,3′ -[1,2,4]trioxolane-5′,1″-cyclohexan]-4″-yl)-2-hydroxybenzoic acid] | 20 μL/(min mg) protein | – | – | 108 μL/(min mg) protein | – |
| CC(=O)NC1C2CC3CC1CC(C2)C31OO[C@]2(CC[C@@H](c3ccc(OCC(=O)O)cc3)CC2)O1 (stereo partly drawn) [Compound 22, cis-6-Acetamidoadamantane-2-spiro-3′−8′-[4-(carboxymethoxy)phenyl]-1′,2′,4′-trioxaspiro[4.5]decane] | < 7 μL/(min mg) protein | 3.1 to 6.3 µg/mL | 12.5 to 25 µg/mL | 10 μL/(min mg) protein | – |
| O=C(O)COc1ccc([C@H]2CC[C@]3(CC2)OOC2(O3)C3CC4CC2CC(C3)C4O)cc1 (stereo partly drawn) [Compound 21, cis-6-Hydroxyadamantane-2-spiro-3′−8′-[4-(carboxymethoxy)-phenyl]-1′,2′,4′-trioxaspiro[4.5]decane] | <7/<7 μL/(min mg) protein | – | 25 to 50 µg/mL | <7/<7 μL/(min mg) protein | – |
| O=C(O)CCCOc1ccc([C@H]2CC[C@]3(CC2)OOC2(O3)C3CC4CC(C3)CC2C4)cc1 (stereo partly drawn) [Compound 9, cis-Adamantane-2-spiro-3′−8′-[4-(carboxypropoxy)-phenyl]-1′,2′,4′-trioxaspiro[4.5]decane] | 8 μL/(min mg) protein | – | – | < 7 μL/(min mg) protein | – |
| O=C(O)COc1c(Cl)cc([C@H]2CC[C@]3(CC2)OOC2(O3)C3CC4CC(C3)CC2C4)cc1Cl (stereo partly drawn) [Compound 8, cis-Adamantane-2-spiro-3′ −8′-[3,5-dichloro-4-(carboxymethoxy)phenyl]-1′,2′,4′-trioxaspiro[4.5]decan] | – | – | 3.1 to 6.3 µg/mL | – | – |
